The results in this text go back to patent US11607419B2, “Inhibitors of RAC1 and uses thereof for inducing bronchodilatation” (INSTITUT NATIONAL DE LA SANTE ET DE LA RECHERCHE MEDICALE …, priority 2017, dated 2023).

pIC50: −log10 of the molar value. Entries after “also recorded” stand apart in the source; their conditions may differ. Where only a bound is given, the exact number is not on record here.

One data set addresses RhoA (Homo sapiens, UniProt P61586). Put plainly: Nucleotide exchange assay, RhoA. In kind it is biochemical. Details: Full-length human small GTPases carrying a 6-histidine tag fused to their C-terminus; 6-histidine tag (C); made in house; host or cells: E. coli. Conditions: 10 μM. An excerpt:
(§1) Nucleotide exchange assays. Full-length human small GTPases carrying a 6-histidine tag fused to their C-terminus were expressed in E. coli and purified to homogeneity. Small GTPases were loaded with GDP or N-methylanthraniloyl-GDP (GDP/mant-GDP, JenaBiosciences) before nucleotide exchange kinetics experiments.
(§2) Nucleotide exchange kinetics were monitored by fluorescence of the mant fluorophore (λexc=360 nm, λem=440 nm) or tryptophan fluorescence (for Arf6; λexc=280 nm, λem=[…]) using a Cary Eclipse fluorimeter (Varian, Toulouse, France) at 30° C. under stirring. All kinetics assays were carried out in a buffer containing 50 mM Tris at pH 8, 300 mM NaCl, 2 mM MgCl2, 1 mM DTT and were started by addition of 100 μM N-methylanthraniloy-GTP or GTP (mant-GTP/GTP, JenaBiosciences). Nucleotide exchange kinetics were carried out at a concentration of small GTPases of 1 μM, either without GEF for spontaneous exchange, in the presence of 50 nM GEF for single kobs (s-1) determination. The kobs was determined from single-exponential fit of the fluorescence change. All experiments were carried out at least in triplicate.

In a further data set the target is T1, Rab35 (Homo sapiens, UniProt Q15286).
T1 construct: Full-length human small GTPases carrying a 6-histidine tag fused to their C-terminus; 6-histidine tag (C); made in house; host or cells: E. coli
T1 sequence (Q15286 whole entry, the tested form may be a part): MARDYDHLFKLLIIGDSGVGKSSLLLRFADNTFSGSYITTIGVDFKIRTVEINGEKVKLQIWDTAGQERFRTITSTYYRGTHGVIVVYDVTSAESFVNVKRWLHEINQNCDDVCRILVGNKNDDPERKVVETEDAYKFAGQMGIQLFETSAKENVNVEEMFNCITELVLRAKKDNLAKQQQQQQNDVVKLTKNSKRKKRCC
Put plainly: Nucleotide exchange assay, Rab35. Type of data set: biochemical. Conditions: 10 μM.
Excerpt: as §1, §2

In data set [1] the target is T2, RAC1 (Homo sapiens, UniProt P63000). Conditions: compared with NSC23766.
The target of a further data set is T3, Arf6 (Homo sapiens, UniProt P62330).
T3 construct: Full-length human small GTPases carrying a 6-histidine tag fused to their C-terminus; 6-histidine tag (C); made in house; host or cells: E. coli
T3 sequence (P62330 whole entry, the tested form may be a part): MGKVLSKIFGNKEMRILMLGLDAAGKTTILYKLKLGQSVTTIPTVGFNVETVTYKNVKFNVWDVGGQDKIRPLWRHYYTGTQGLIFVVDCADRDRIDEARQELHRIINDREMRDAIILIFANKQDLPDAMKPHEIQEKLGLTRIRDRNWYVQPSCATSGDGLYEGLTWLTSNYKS
Put plainly: Nucleotide exchange assay, Arf6. In kind it is biochemical. The following applies: 10 μM.
Excerpt: as §1, §2

Data set [2] relates to murine bronchial rings (aSMC contraction). Nature of the data set: Airways reactivity ex vivo: methacholine contraction of bronchial rings. The following applies: bronchial rings from control mice, pre-incubated 1 h. As for the experimental part:
Airways reactivity ex vivo. Murine primary bronchi were cleaned, cut in rings and mounted on a multichannel isometric myograph in Krebs-Henseleit physiological solution (118.4 mM NaCl, 4.7 mM KCl, 2 mM CaCl2, 1.2 mM MgSO4, 1.2 mM KH2PO4, 25 mM NaHCO3 and 11 mM glucose) at 37° C. under oxygen. A pre-tension of 0.5 mN was applied. We constructed dose-response curves to methacholine (Sigma). When indicated, rings were pre-incubated 1 h before contraction with (2) (or compound A4.1). The wire myograph was connected to a digital data recorder (MacLab/4e, AD Instruments) and recordings were analyzed using LabChart v7 software (AD Instruments).

Another data set concerns the target T4, RhoG (Homo sapiens, UniProt P84095).
T4 construct: Full-length human small GTPases carrying a 6-histidine tag fused to their C-terminus; 6-histidine tag (C); made in house; host or cells: E. coli
Nature of the data set: Nucleotide exchange assay, RhoG. The following applies: 10 μM. Type of data set: biochemical.
Excerpt: as §1, §2

The subject of data set [3] is airway hyperresponsiveness. Put plainly: Airway responsiveness in vivo (whole-body plethysmography, methacholine). Details: species or system mice. The following applies: mouse model of allergic asthma, acute nebulization (300 μl at 5 mM) 10 min before methacholine. As for the experimental part:
Animals use and airways responsiveness measurement in vivo. All experimental procedures and animal care were performed in accordance with the European Community Standards on the Care and Use of Laboratory Animals and approved by the local ethics committee (Comité d'Ethique en Expérimentation Animale des Pays de Loire). Airway responsiveness was assessed in conscious, unrestrained mice using a barometric, whole-body plethysmography (EMKA Technologies) by recording respiratory pressure curves in response to inhaled methacholine (Sigma) at concentrations of 0-40 mg/ml for 1 min. Airway responsiveness was expressed in enhanced pause (Penh) units. The Penh values measured after stimulation were averaged and expressed as the fold-increase over baseline values. When required, the Rac inhibitor (2) was nebulised (300 μl at 5 mM) 10 min before methacholine challenge.

Another data set concerns the target T5, Rac2 (Homo sapiens, UniProt P15153).
T5 construct: Full-length human small GTPases carrying a 6-histidine tag fused to their C-terminus; 6-histidine tag (C); made in house; host or cells: E. coli
Put plainly: Nucleotide exchange assay (mant-GTP/mant-GDP), Rac2. Type of data set: biochemical. Conditions: 10 μM.
Excerpt: as §1, §2

The test system of another data set is 3T3 cells migration. Put plainly: Unidirectional cell migration. Type of data set: cell-based. As for the experimental part: Unidirectional cell migration. Cells (1000/well) were seeded in a 96 well plate with […] fibronectin stripes (CytooPlates Motility, CYTOO) in medium with 1% SVF and allowed to spread for 4 hours before capturing time-lapse images for 24 hours (image/10 minutes) on a Widefield Leica DMI 6000B drove with Metamorph software. Cells speed was measured with ImageJ software.

The target of data set [4] is T2, RAC1. Nature of the data set: Surface plasmon resonance on immobilised Rac1. Type of data set: binding. On the procedure:
Surface plasmon resonance studies. SPR immobilization was performed at 25° C. Rac1, RhoA and Cdc42 purified proteins were diluted to 5 μg/mL in Na^+ acetate buffer (pH 5.0) and injected into sensor chip CM5 (GE Healthcare) in a Biacore T200 (GE Healthcare) that was activated with NHS/EDC buffer. Approximately 5,000 response units of the purified protein were captured on the biosensor chip. Biosensor chips were blocked by an injection of […] ethanolamine (pH 8.5). […] SPR analysis was performed at 25° C. in HBSEP running buffer (5% DMSO). When indicated, EDTA (20 mM) was added in running buffer.

For another data set, the system named is fibroblast adhesion. Nature of the data set: Cell adhesion assay using impedance technology. Type of data set: cell-based. Conditions: fibroblasts. As for the experimental part: Cell adhesion assay using impedance technology. Cells (10000/well) were seeded in a 96 well plate microtiter xCELLigence assay plate (E-Plate) (ACEA Biosciences Inc.) and placed on the Real-time xCELLigence Cell Analyzer (Roche Applied Science) platform at 37° C. to measure the “cell index” every 5 min for a period of 6 hours. The cell index unit is defined as (Rn−Rb)/15. Rn is the cell electrode impedance of the well when it contains cells. Rb is the background impedance of the well with the media alone.

The target of data set [5] is T6, Rac-GTP (Rac1 activity) in NIH3T3 cells (Mus musculus, UniProt P63001).
T6 construct: endogenous in cells; host or cells: NIH3T3
Nature of the data set: Rac activation: active Rac immunoprecipitation and immunoblot of Rac-GTP in fibroblasts stimulated by a Rac activator. Type of data set: cell-based. The following applies: pre-incubated 1 h. As for the experimental part: (§3) Cell culture, transfection and actin staining. NIH3T3 cells grew up in DMEM (Gibco; Invitrogen) containing 10% foetal bovine serum, 100 units/mL penicillin and 100 μg/mL streptomycin at 37° C. and 5% CO2. The culture medium was changed every 72 hours.
Analysis of Rac1 activity. In NIH3T3 cells lysates, Rac1 activity was evaluated by active Rac immunoprecipitation using anti-Rac-GTP antibody (26903, NewEast Biosciences). The precipitated active Rac was subjected to SDS-PAGE and detected by immunoblot with anti-Rac1 antibody (BD biosciences).

Data set [6] relates to Rac1-dependent ruffle formation in NIH3T3 cells. Put plainly: Rac activator-induced membrane ruffling (actin staining) in fibroblasts. In kind it is cell-based. On the procedure:
as §3
After treatments, fibroblasts were fixed with 4% paraformaldehyde in PBS, permeabilized in PBS 0.5% Triton X-100, and incubated with 130 μg/mL of FITC-conjugated phalloidin (Sigma) to visualize F-actin. After staining, images were captured by a fluorescence microscope (Nikon). The actin cytoskeleton organization was analyzed to observe Rac1-dependent ruffle formation.

Data set [7] concerns the target T2, RAC1. Nature of the data set: Nucleotide exchange assay (mant-GTP/mant-GDP), Rac1. In kind it is biochemical. Conditions: 10 μM. Details: Full-length human small GTPases carrying a 6-histidine tag fused to their C-terminus; 6-histidine tag (C); made in house; host or cells: E. coli.
Excerpt: as §1, §2

Data set [8] addresses T2, RAC1.

T4 sequence (P84095 whole entry, the tested form may be a part): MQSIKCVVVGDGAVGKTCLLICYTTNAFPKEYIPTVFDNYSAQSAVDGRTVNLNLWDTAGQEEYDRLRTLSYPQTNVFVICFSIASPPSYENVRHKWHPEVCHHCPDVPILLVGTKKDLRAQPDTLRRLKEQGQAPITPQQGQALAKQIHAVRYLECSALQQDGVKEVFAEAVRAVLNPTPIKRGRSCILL
Chain of RhoA (P61586 whole entry, the tested form may be a part): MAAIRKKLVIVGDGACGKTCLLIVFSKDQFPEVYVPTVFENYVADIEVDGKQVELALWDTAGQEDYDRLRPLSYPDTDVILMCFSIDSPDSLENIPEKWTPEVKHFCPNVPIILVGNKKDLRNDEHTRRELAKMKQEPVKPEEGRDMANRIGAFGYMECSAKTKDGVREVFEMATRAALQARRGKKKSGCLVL

Take `COc1ccc(OC)c(NS(=O)(=O)c2ccc(NC(=O)CCSc3ccc(C)cc3)cc2)c1` [Compound (2), N-(4-(N-(2,5-dimethoxyphenyl)sulfamoyl)phenyl)-3-(p-tolylthio)propanamide]: the melting point amounted to 136 °C. Further, the “nucleotide exchange kinetics of RhoA” value at RhoA is recorded as “did not alter”. The “nucleotide exchange kinetics of Rab35” value at Rab35 was “did not alter”. Moreover, the “Relative activity (NSC23766)” value on RAC1 [1] was “>”. The “nucleotide exchange kinetics of Arf6” value at Arf6 is “did not alter”. In addition, in [2], the “maximal contraction induced by methacholine” value was “dose-dependent reduced”. Further, the “nucleotide exchange kinetics of RhoG” value on RhoG is “did not alter”. Besides, in data set [3], the “airway hyperresponsiveness (AHR)” value is listed as “prevented”. The “Bmax GTP-binding on Rac2” value on Rac2 is “decreased”. In the data set with 3T3 cells migration, the “migration inhibition compared with NSC23766” value is listed as “higher inhibition” and the “migration rate of the cells” value is given as “decreases; also recorded: slow down”. Besides, the “SPR binding to Rac1” value on RAC1 [4] (0.78-25 μM injected) is “binds Rac1”. Moreover, the “SPR interaction with Rac1 nucleotide free” value at RAC1 [4] (EDTA in running buffer) is given as “significantly increased”. The “adhesion inhibition compared with NSC23766” value in the data set on fibroblast adhesion is “higher inhibition”. Also, the “adhesion rate of the cells” value in the data set on fibroblast adhesion (10 μm) is reported as “decreases; also recorded: slow down”. Further, in [5], the “Rac activation (Rac-GTP level) by a Rac activator” value is “prevented”. This compound also showed a pIC50 in data set [6] (Mus musculus, NIH3T3, fibroblasts, dose-dependent inhibition) of 9.17. Besides, in [6] (added 1 h before Rac activation), the “efficiency of Rac activator to induce ruffle” value is reported as “blocks; also recorded: strongly decreased”. Also, on RAC1 [7], the “Bmax GTP-binding on Rac1” value is given as “decreased”. In addition, the pIC50 against RAC1 [8] was 9.00.
